# System: RS4;11 xenograft
# Assay: RS4;11 mouse xenograft efficacy (tumour volume)
# Type: in vivo, C.B-17 SCID mouse
# Experimental: Female C.B.−17 SCID mice were purchased from Charles River Laboratories. Mice were 5–8 weeks old at the time of tumour implantation. All xenograft studies were conducted at our Association for the Assessment and Accreditation of Laboratory Animal Care accredited facility in Waltham, MA in accordance with ethical regulations described in the guidelines established by the internal Institutional Animal Care and Use Committee. The dendrimer conjugates were formulated in citrate/phosphate buffer pH 5.0, diluted 1:10 with 5% glucose containing 1% w/v Kolliphor HS15, and AZD4320 was formulated in 30% HP-β-CD and dosed as a weekly intravenous (IV) administration at a volume of 5 ml/kg at the indicated doses. Five million RS4;11, five million SUDHL-4 or five million OCI-LY-10 cells were injected subcutaneously in the right flank of mice in a volume of 0.1 ml. Tumour volumes (measured by caliper), animal body weight, and tumor condition were recorded twice weekly for the duration of the study. The tumour volume was calculated (taking length to be the longest diameter across the tumour and width to be the corresponding perpendicular diameter) using the formula: length (mm) x width (mm)^2/0.52. For efficacy studies, mice were randomized based on tumour volumes using stratified sampling and enrolled into control and treatment groups. Tumour growth inhibition from the start of treatment was quantified by measuring the difference in tumour volume between control and treated groups. Survival analysis was evaluated using Mantel-Cox test. Tumours were also taken for bioanalysis.
substance,measurement,setting,value
AZD4320-MIDA-PEG2100 [AZD0466],"Tumour volume, Geo Mean","RS4;11, AZD0466 10 mg/kg (3mg/kg AZD4320), day 66",258.58
same,"Tumour volume, Geo Mean","RS4;11, AZD0466 10 mg/kg (3mg/kg AZD4320), day 70",353.377
same,"Tumour volume, Geo Mean","RS4;11, AZD0466 10 mg/kg (3mg/kg AZD4320), day 73",450.085
same,"Tumour volume, Geo Mean","RS4;11, AZD0466 10 mg/kg (3mg/kg AZD4320), day 77",770.449
same,"Tumour volume, Geo Mean","RS4;11, AZD0466 10 mg/kg (3mg/kg AZD4320), day 80",703.796
same,"Tumour volume, Geo Mean","RS4;11, AZD0466 10 mg/kg (3mg/kg AZD4320), day 83",919.497
same,"Tumour volume, Geo Mean","RS4;11, AZD0466 34 mg/kg (10mg/kg AZD4320), day 41",491.258
same,"Tumour volume, Geo Mean","RS4;11, AZD0466 34 mg/kg (10mg/kg AZD4320), day 44",242.554
same,"Tumour volume, Geo Mean","RS4;11, AZD0466 34 mg/kg (10mg/kg AZD4320), day 48",1.95
same,"Tumour volume, Geo Mean","RS4;11, AZD0466 34 mg/kg (10mg/kg AZD4320), day 51",1
same,"Tumour volume, Geo Mean","RS4;11, AZD0466 34 mg/kg (10mg/kg AZD4320), day 55",1
same,"Tumour volume, Geo Mean","RS4;11, AZD0466 34 mg/kg (10mg/kg AZD4320), day 58",1
same,"Tumour volume, Geo Mean","RS4;11, AZD0466 34 mg/kg (10mg/kg AZD4320), day 63",24.9155
same,"Tumour volume, Geo Mean","RS4;11, AZD0466 34 mg/kg (10mg/kg AZD4320), day 66",88.4785
same,"Tumour volume, Geo Mean","RS4;11, AZD0466 34 mg/kg (10mg/kg AZD4320), day 70",55.1235
same,"Tumour volume, Geo Mean","RS4;11, AZD0466 34 mg/kg (10mg/kg AZD4320), day 73",52.3606
same,"Tumour volume, Geo Mean","RS4;11, AZD0466 34 mg/kg (10mg/kg AZD4320), day 77",71.4432
same,"Tumour volume, Geo Mean","RS4;11, AZD0466 34 mg/kg (10mg/kg AZD4320), day 80",194.327
same,"Tumour volume, Geo Mean","RS4;11, AZD0466 34 mg/kg (10mg/kg AZD4320), day 83",206.49
same,"Tumour volume, Geo Mean","RS4;11, AZD0466 103 mg/kg (30mg/kg AZD4320), day 41",495.68
same,"Tumour volume, Geo Mean","RS4;11, AZD0466 103 mg/kg (30mg/kg AZD4320), day 44",271.066
same,"Tumour volume, Geo Mean","RS4;11, AZD0466 103 mg/kg (30mg/kg AZD4320), day 48",1.967
same,"Tumour volume, Geo Mean","RS4;11, AZD0466 103 mg/kg (30mg/kg AZD4320), day 51",1
same,"Tumour volume, Geo Mean","RS4;11, AZD0466 103 mg/kg (30mg/kg AZD4320), day 55",1
same,"Tumour volume, Geo Mean","RS4;11, AZD0466 103 mg/kg (30mg/kg AZD4320), day 58",1
same,"Tumour volume, Geo Mean","RS4;11, AZD0466 103 mg/kg (30mg/kg AZD4320), day 63",5.6048
same,"Tumour volume, Geo Mean","RS4;11, AZD0466 103 mg/kg (30mg/kg AZD4320), day 66",13.7221
same,"Tumour volume, Geo Mean","RS4;11, AZD0466 103 mg/kg (30mg/kg AZD4320), day 70",40.3244
same,"Tumour volume, Geo Mean","RS4;11, AZD0466 103 mg/kg (30mg/kg AZD4320), day 73",44.9682
same,"Tumour volume, Geo Mean","RS4;11, AZD0466 103 mg/kg (30mg/kg AZD4320), day 77",64.9706
same,"Tumour volume, Geo Mean","RS4;11, AZD0466 103 mg/kg (30mg/kg AZD4320), day 80",64.3873
same,"Tumour volume, Geo Mean","RS4;11, AZD0466 103 mg/kg (30mg/kg AZD4320), day 83",200.25
same,animals remaining tumour free for up to 6 weeks,"RS4;11, highest dose (30 mg/kg AZD4320-equivalent)",2/6
same,regression during treatment period,"RS4;11, weekly IV, 10 mg/kg and 30 mg/kg AZD4320-equivalent",Complete tumour regression
same,tumour regression,"RS4;11, weekly IV, 3, 10 and 30 mg/kg AZD4320-equivalent dose, each dose group",tumour regression in all 6 mice
